# Target: WDR5 (Homo sapiens, UniProt P61964)
# Test: Screening of putative WDR5 degraders by Western blot in MV4;11 and/or MIAPACA2 cells
# Assay type: cell-based
# Set-up: After WDR5 degrader treatment, cells were collected and lysed; endogenous in cells; host or cells: MV4;11 and/or MIAPACA2
# Details: summary of screening, FIGS. 6-10
# Outline: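 MV4;11 (1×10^6/well) or MIAPACA2 (1×10^5/well) cells treated 18 h with compound at paired doses between 0.1 and 10 μM, DMSO as control. Total lysates immunoblotted for WDR5 with vinculin, tubulin or GAPDH loading controls; fluorescent secondary detection.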
row,effective degradation of WDR5 in MV4;11 and/or MIAPACA2 cells,Compound
1,able to effectively degrade WDR5,"Cc1ncsc1-c1ccc(CNC(=O)[C@@H]2C[C@@H](O)CN2C(=O)[C@@H](NC(=O)CCCCCCCC(=O)N2CCN(Cc3cnc(N4CC=C(c5cc(NC(=O)c6c[nH]c(=O)cc6C(F)(F)F)c(N6C[C@@H](C)N(C)[C@@H](C)C6)cc5F)CC4)nc3)CC2)C(C)(C)C)cc1 [XF078-146, N-(4-fluoro-5-(1-(5-((4-(9-(((S)-1-((2S,4R)-4-hydroxy-2-((4-(4-methylthiazol-5-yl)benzyl)carbamoyl)pyrrolidin-1-yl)-3,3-dimethyl-1-oxobutan-2-yl)amino)-9-oxononanoyl)piperazin-1-yl)methyl)pyrimidin-2-yl)-1,2,3,6-tetrahydropyridin-4-yl)-2-((3S,5R)-3,4,5-trimethylpiperazin-1-yl)phenyl)-6-oxo-4-(trifluoromethyl)-1,6-dihydropyridine-3-carboxamide]"
2,able to effectively degrade WDR5,"Cc1ncsc1-c1ccc(CNC(=O)[C@@H]2C[C@@H](O)CN2C(=O)[C@@H](NC(=O)COCCOCCOCC(=O)N2CCN(Cc3cnc(N4CC=C(c5cc(NC(=O)c6c[nH]c(=O)cc6C(F)(F)F)c(N6C[C@@H](C)N(C)[C@@H](C)C6)cc5F)CC4)nc3)CC2)C(C)(C)C)cc1 [XF078-136, N-(4-fluoro-5-(1-(5-((4-((S)-13-((2S,4R)-4-hydroxy-2-((4-(4-methylthiazol-5-yl)benzyl)carbamoyl)pyrrolidine-1-carbonyl)-14,14-dimethyl-11-oxo-3,6,9-trioxa-12-azapentadecanoyl)piperazin-1-yl)methyl)pyrimidin-2-yl)-1,2,3,6-tetrahydropyridin-4-yl)-2-((3S,5R)-3,4,5-trimethylpiperazin-1-yl)phenyl)-6-oxo-4-(trifluoromethyl)-1,6-dihydropyridine-3-carboxamide]"
3,able to effectively degrade WDR5,"C[C@@H]1CN(c2ccc(-c3cc(CN4CCN(CCNC(=O)CCCCNc5cccc6c5C(=O)N(C5CCC(=O)NC5=O)C6=O)CC4)ccc3F)cc2NC(=O)c2c[nH]c(=O)cc2C(F)(F)F)C[C@H](C)N1C (stereo partly drawn) [XF078-21, N-(5′-((4-(2-(5-((2-(2,6-dioxopiperidin-3-yl)-1,3-dioxoisoindolin-4-yl)amino)pentanamido)ethyl)piperazin-1-yl)methyl)-2′-fluoro-4-((3S,5R)-3,4,5-trimethylpiperazin-1-yl)-[1,1′-biphenyl]-3-yl)-6-oxo-4-(trifluoromethyl)-1,6-dihydropyridine-3-carboxamide]"
4,able to effectively degrade WDR5,"Cc1ncsc1-c1ccc(CNC(=O)[C@@H]2C[C@@H](O)CN2C(=O)[C@@H](NC(=O)CCCCCCCCCC(=O)N2CCN(Cc3cnc(N4CC=C(c5cc(NC(=O)c6c[nH]c(=O)cc6C(F)(F)F)c(N6C[C@@H](C)N(C)[C@@H](C)C6)cc5F)CC4)nc3)CC2)C(C)(C)C)cc1 [XF078-148, N-(4-fluoro-5-(1-(5-((4-(11-(((S)-1-((2S,4R)-4-hydroxy-2-((4-(4-methylthiazol-5-yl)benzyl)carbamoyl)pyrrolidin-1-yl)-3,3-dimethyl-1-oxobutan-2-yl)amino)-11-oxoundecanoyl)piperazin-1-yl)methyl)pyrimidin-2-yl)-1,2,3,6-tetrahydropyridin-4-yl)-2-((3S,5R)-3,4,5-trimethylpiperazin-1-yl)phenyl)-6-oxo-4-(trifluoromethyl)-1,6-dihydropyridine-3-carboxamide]"
5,able to effectively degrade WDR5,"Cc1ncsc1-c1ccc(CNC(=O)[C@@H]2C[C@@H](O)CN2C(=O)[C@@H](NC(=O)COCC(=O)N2CCN(Cc3cnc(N4CC=C(c5cc(NC(=O)c6c[nH]c(=O)cc6C(F)(F)F)c(N6C[C@@H](C)N(C)[C@@H](C)C6)cc5F)CC4)nc3)CC2)C(C)(C)C)cc1 [XF078-132, N-(4-fluoro-5-(1-(5-((4-(2-(2-(((S)-1-((2S,4R)-4-hydroxy-2-((4-(4-methylthiazol-5-yl)benzyl)carbamoyl)pyrrolidin-1-yl)-3,3-dimethyl-1-oxobutan-2-yl)amino)-2-oxoethoxy)acetyl)piperazin-1-yl)methyl)pyrimidin-2-yl)-1,2,3,6-tetrahydropyridin-4-yl)-2-((3S,5R)-3,4,5-trimethylpiperazin-1-yl)phenyl)-6-oxo-4-(trifluoromethyl)-1,6-dihydropyridine-3-carboxamide]"
6,able to effectively degrade WDR5,"Cc1ncsc1-c1ccc(CNC(=O)[C@@H]2C[C@@H](O)CN2C(=O)[C@@H](NC(=O)CCOCCOCCOCCOCCC(=O)N2CCN(Cc3cnc(N4CC=C(c5cc(NC(=O)c6c[nH]c(=O)cc6C(F)(F)F)c(N6C[C@@H](C)N(C)[C@@H](C)C6)cc5F)CC4)nc3)CC2)C(C)(C)C)cc1 [XF078-138, N-(4-fluoro-5-(1-(5-((4-((S)-18-((2S,4R)-4-hydroxy-2-((4-(4-methylthiazol-5-yl)benzyl)carbamoyl)pyrrolidine-1-carbonyl)-19,19-dimethyl-16-oxo-4,7,10,13-tetraoxa-17-azaicosanoyl)piperazin-1-yl)methyl)pyrimidin-2-yl)-1,2,3,6-tetrahydropyridin-4-yl)-2-((3S,5R)-3,4,5-trimethylpiperazin-1-yl)phenyl)-6-oxo-4-(trifluoromethyl)-1,6-dihydropyridine-3-carboxamide]"
7,able to effectively degrade WDR5,"C[C@@H]1CN(c2ccc(-c3cc(CN4CCN(CCNC(=O)CCCCCCCNc5cccc6c5C(=O)N(C5CCC(=O)NC5=O)C6=O)CC4)ccc3F)cc2NC(=O)c2c[nH]c(=O)cc2C(F)(F)F)C[C@H](C)N1C (stereo partly drawn) [XF078-24, N-(5′-((4-(2-(8-((2-(2,6-dioxopiperidin-3-yl)-1,3-dioxoisoindolin-4-yl)amino)octanamido)ethyl)piperazin-1-yl)methyl)-2′-fluoro-4-((3S,5R)-3,4,5-trimethylpiperazin-1-yl)-[1,1′-biphenyl]-3-yl)-6-oxo-4-(trifluoromethyl)-1,6-dihydropyridine-3-carboxamide]"

row,Compound,effective degradation of WDR5 in MV4;11 and/or MIAPACA2 cells
1,"Cc1ncsc1-c1ccc(CNC(=O)[C@@H]2C[C@@H](O)CN2C(=O)[C@@H](NC(=O)CCCCCCCCCC(=O)N2CCN(c3ncc(-c4cc(NC(=O)c5ccc(F)cc5C(F)(F)F)c(N5C[C@@H](C)N(C)[C@@H](C)C5)cc4F)cn3)CC2)C(C)(C)C)cc1 [XF078-115, (2S,4R)-1-((S)-2-(11-(4-(5-(2-fluoro-5-(4-fluoro-2-(trifluoromethyl)benzamido)-4-((3S,5R)-3,4,5-trimethylpiperazin-1-yl)phenyl)pyrimidin-2-yl)piperazin-1-yl)-11-oxoundecanamido)-3,3-dimethylbutanoyl)-4-hydroxy-N-(4-(4-methylthiazol-5-yl)benzyl)pyrrolidine-2-carboxamide]",able to effectively degrade WDR5
2,"Cc1ncsc1-c1ccc(CNC(=O)[C@@H]2C[C@@H](O)CN2C(=O)[C@@H](NC(=O)COCC(=O)N2CC=C(c3cc(NC(=O)c4c[nH]c(=O)cc4C(F)(F)F)c(N4C[C@@H](C)N(C)[C@@H](C)C4)cc3F)CC2)C(C)(C)C)cc1 [XF078-30, N-(4-fluoro-5-(1-(2-(2-(((S)-1-((2S,4R)-4-hydroxy-2-((4-(4-methylthiazol-5-yl)benzyl)carbamoyl)pyrrolidin-1-yl)-3,3-dimethyl-1-oxobutan-2-yl)amino)-2-oxoethoxy)acetyl)-1,2,3,6-tetrahydropyridin-4-yl)-2-((3S,5R)-3,4,5-trimethylpiperazin-1-yl)phenyl)-6-oxo-4-(trifluoromethyl)-1,6-dihydropyridine-3-carboxamide]",able to effectively degrade WDR5

# From patent US12110295B2, “WD40 repeat domain protein 5 (WDR5) degradation/disruption compounds and methods of use” (Icahn School of Medicine at Mount Sinai, priority 2018, dated 2024)
